In article PMC10817917, “Alkyl deoxyglycoside-polymyxin combinations against critical priority carbapenem-resistant gram-negative bacteria” (Scientific Reports, 2024):
Several values for one entry are separate records, joined by “and”; a condition that tells them apart may be missing. Equal entries are not always repeated. Where two headings read alike, the source gives them in different places.

How the values were obtained:
[1] = tested on: E. cloacae CQ1941; experiment: Broth microdilution MIC/MBC, glycosides with or without polymyxins; assay type: cell-based; details: for MIC: Enterobacter cloacae, CQ1941
[2] = tested on: E. coli ATCC 25922; experiment: as above; assay type: cell-based, Escherichia coli; details: for MIC: Escherichia coli, ATCC25922
[3] = tested on: Bacillus anthracis (Sterne, ovine and pathogenic forms), Enterococcus faecalis and Bacillus cereus; details: Gram-positive bacteria; cited from earlier work
[4] = tested on: Caco-2 cells; experiment: Resazurin cell viability assay (cytotoxicity); assay type: cell-based, human; details: Homo sapiens, Caco-2, 72 h, read-out: IC50
In short: (§1)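 HEK-293T and Caco-2 cells (1.5 × 10^4/well, RPMI 1640 with 10% FBS) exposed 72 h at 37 °C to glycosides at final 100 to 10 µM, alone or with PMB or colistin at final 0.5, 0.25 or 0.125 µg/mL; max DMSO 0.33%. Resazurin added 4 h, read 570/600 nm; IC50 from dose-response fits, mean ± SD of three replicates.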

[5] = tested on: HEK-293T cells; experiment: Resazurin cell viability assay (cytotoxicity); assay type: cell-based, human; details: 72 h, read-out: IC50
In short: as §1

[6] = tested on: K. pneumoniae CQ4921; experiment: Broth microdilution MIC/MBC, glycosides with or without polymyxins; assay type: cell-based, Klebsiella pneumoniae; details: for MIC: Klebsiella pneumoniae, CQ4921
[7] = tested on: K. pneumoniae CQ1947; experiment: Broth microdilution MIC, glycosides with or without polymyxins; assay type: cell-based, Klebsiella pneumoniae; details: for MIC: Klebsiella pneumoniae, CQ1947
[8] = alone, read-out: MICA (MIC of each compound individually)
[9] = combination with the lowest FICI
[10] = compound + colistin, lowest FICI

CCCCCCCCCCCCO[C@@H]1O[C@H](C)C[C@H](O)[C@H]1O [Compound 2, dodecyl 4,6-dideoxy-α/β-D-xylo-hexopyranoside]
MIC of colistin in combination with the compound ([1]; Cpd conc. 0.4 μg/mL, strain D): 0.5 µg/mL | MIC of colistin in combination with the compound ([1]; Cpd conc. 0.8 μg/mL, strain D): 0.5 µg/mL | MIC of colistin in combination with the compound ([1]; Cpd conc. 3.125 μg/mL, strain D): 0.25 µg/mL | MIC of colistin in combination with the compound ([1]; Cpd conc. 6.25 μg/mL, strain D): 0.25 µg/mL | MIC of colistin in combination with the compound ([1]; Cpd conc. 12.5 μg/mL, strain D): 0.125 µg/mL | MIC of colistin in combination with the compound ([1]; Cpd conc. […], strain D): 0.25 µg/mL | MIC ([1]; agent alone, no adjuvant (polymyxin conc. 0), strain D, read-out: MIC): > 100 µg/mL | MIC [1, 8]: > 100 µg/mL | MIC of compound in combination with PMB ([1]; PMB 0.25 μg/mL, strain D): 12.5 µg/mL | MIC of compound in combination with PMB ([1]; PMB 0.5 μg/mL, strain D): ≤ 0.1 µg/mL | MIC of compound in combination with colistin ([1]; colistin 0.06 μg/mL, strain D): > 100 µg/mL | MBC of compound in combination with colistin ([1]; colistin 0.125 μg/mL, strain D): 25 µg/mL | MIC of compound in combination with colistin ([1]; colistin 0.125 μg/mL, strain D): 12.5 µg/mL | MIC of compound in combination with colistin ([1]; colistin 0.25 μg/mL, strain D): 1.6 µg/mL | MIC of compound in combination with colistin ([1]; colistin 0.5 μg/mL, strain D): ≤ 0.1 µg/mL | MICA(A + B) (MIC of compound in combination with colistin) [1, 9]: 12.5 µg/mL | MICB(A + B) (MIC of colistin in combination with compound) [1, 9]: 0.125 µg/mL | FICI [1, 10]: 0.31 | MIC of colistin in combination with the compound ([2]; Cpd conc. 0.4 μg/mL, strain A): > 0.5 µg/mL | MIC of colistin in combination with the compound ([2]; Cpd conc. 0.8 μg/mL, strain A): 0.5 µg/mL | MIC of colistin in combination with the compound ([2]; Cpd conc. 3.125 μg/mL, strain A): ≤ 0.06 µg/mL | MIC of colistin in combination with the compound ([2]; Cpd conc. 6.25 μg/mL, strain A): ≤ 0.06 µg/mL | MIC of colistin in combination with the compound ([2]; Cpd conc. 12.5 μg/mL, strain A): ≤ 0.06 µg/mL | MIC of colistin in combination with the compound ([2]; Cpd conc. […], strain A): 0.5 µg/mL | MIC ([2]; agent alone, no adjuvant (polymyxin conc. 0), strain A, read-out: MIC): > 100 µg/mL | MIC [2, 8]: > 100 µg/mL | MIC of compound in combination with PMB ([2]; PMB 0.5 μg/mL, strain A): 0.8 µg/mL | MIC of compound in combination with colistin ([2]; colistin 0.06 μg/mL, strain A): 3.1 µg/mL | MBC of compound in combination with colistin ([2]; colistin 0.125 μg/mL, strain A): 3.1|3.1 μg/mL | MIC of compound in combination with colistin ([2]; colistin 0.125 μg/mL, strain A): 3.1 μg/mL and 3.1|3.1 μg/mL | MIC of compound in combination with colistin ([2]; colistin 0.25 μg/mL, strain A): 3.1 µg/mL | MIC of compound in combination with colistin ([2]; colistin 0.5 μg/mL, strain A): 0.4 µg/mL | MICA(A + B) (MIC of compound in combination with colistin) [2, 9]: 3.125 µg/mL | MICB(A + B) (MIC of colistin in combination with compound) [2, 9]: 0.06 µg/mL | Interpretation (of FICI) ([2]; compound + colistin): Synergy (Values ≤ 0.5 were considered synergistic) | FICI [2, 10]: 0.14 | MIC [3]: > 405 µM | IC50 ([4]; Colistin 0.125 μg/mL): 55.7 ± 0.52 µM | IC50 ([4]; Colistin 0.25 μg/mL): 58.09 ± 0.33 µM | IC50 ([4]; Colistin 0.5 μg/mL): 53.4 ± 5.35 µM | IC50 ([4]; No polymyxin): 54.8 ± 0.61 µM | IC50 ([4]; PMB 0.25 μg/mL): 58.8 ± 2.66 µM | IC50 ([4]; PMB 0.5 μg/mL): 56.4 ± 3.9 µM | IC50 ([4]; tested alone (no polymyxin adjuvant)): 17.4 µg/mL | IC50 ([5]; Homo sapiens, HEK-293T, Colistin 0.25 μg/mL): 80.7 ± 6.08 µM | IC50 ([5]; Homo sapiens, HEK-293T, Colistin 0.5 μg/mL): 84.1 ± 2.87 µM | IC50 ([5]; Homo sapiens, HEK-293T, No polymyxin): 84.2 ± 2.59 µM | IC50 ([5]; Homo sapiens, HEK-293T, PMB 0.25 μg/mL): 84.5 ± 1.52 µM | IC50 ([5]; Homo sapiens, HEK-293T, PMB 0.5 μg/mL): 82 ± 2.9 µM | IC50 ([5]; Homo sapiens, HEK-293T, tested alone (no polymyxin adjuvant)): 26.6 µg/mL | IC50 ([5]; No polymyxin): 84.2 µM | MIC of colistin in combination with the compound ([6]; Cpd conc. 0.4 μg/mL, strain C): 0.5 µg/mL | MIC of colistin in combination with the compound ([6]; Cpd conc. 0.8 μg/mL, strain C): 0.5 µg/mL | MIC of colistin in combination with the compound ([6]; Cpd conc. 3.125 μg/mL, strain C): 0.125 µg/mL | MIC of colistin in combination with the compound ([6]; Cpd conc. 6.25 μg/mL, strain C): 0.125 µg/mL | MIC of colistin in combination with the compound ([6]; Cpd conc. 12.5 μg/mL, strain C): 0.125 µg/mL | MIC of colistin in combination with the compound ([6]; Cpd conc. […], strain C): 0.5 µg/mL | MIC ([6]; agent alone, no adjuvant (polymyxin conc. 0), strain C, read-out: MIC): > 100 µg/mL | MIC [6, 8]: > 100 µg/mL | MIC of compound in combination with PMB ([6]; PMB 0.5 μg/mL, strain C): ≤ 0.1 µg/mL | MIC of compound in combination with colistin ([6]; colistin 0.06 μg/mL, strain C): > 100 µg/mL | MBC of compound in combination with colistin ([6]; colistin 0.125 μg/mL, strain C): 6.3 µg/mL | MIC of compound in combination with colistin ([6]; colistin 0.125 μg/mL, strain C): 3.1 µg/mL | MIC of compound in combination with colistin ([6]; colistin 0.25 μg/mL, strain C): 3.1 µg/mL | MIC of compound in combination with colistin ([6]; colistin 0.5 μg/mL, strain C): ≤ 0.1 µg/mL | MICA(A + B) (MIC of compound in combination with colistin) [6, 9]: 3.125 µg/mL | MICB(A + B) (MIC of colistin in combination with compound) [6, 9]: 0.125 µg/mL | Interpretation (of FICI) ([6]; compound + colistin): Synergy (Values ≤ 0.5 were considered synergistic) | FICI [6, 10]: 0.27 | MIC of colistin in combination with the compound ([7]; Cpd conc. 0.4 μg/mL, strain F): > 0.5 µg/mL | MIC of colistin in combination with the compound ([7]; Cpd conc. 0.8 μg/mL, strain F): 0.5 µg/mL | MIC of colistin in combination with the compound ([7]; Cpd conc. 3.125 μg/mL, strain F): 0.5 µg/mL | MIC of colistin in combination with the compound ([7]; Cpd conc. 6.25 μg/mL, strain F): 0.5 µg/mL | MIC of colistin in combination with the compound ([7]; Cpd conc. 12.5 μg/mL, strain F): 0.5 µg/mL | MIC of colistin in combination with the compound ([7]; Cpd conc. […], strain F): 0.5 µg/mL | MIC ([7]; agent alone, no adjuvant (polymyxin conc. 0), strain F, read-out: MIC): > 100 µg/mL | MIC [7, 8]: > 100 µg/mL | MIC of compound in combination with PMB ([7]; PMB 0.25 μg/mL, strain F): > 100 µg/mL | MIC of compound in combination with PMB ([7]; PMB 0.5 μg/mL, strain F): 0.8 µg/mL | MIC of compound in combination with colistin ([7]; colistin 0.06 μg/mL, strain F): > 100 µg/mL | MIC of compound in combination with colistin ([7]; colistin 0.125 μg/mL, strain F): > 100 µg/mL | MIC of compound in combination with colistin ([7]; colistin 0.25 μg/mL, strain F): > 100 µg/mL | MIC of compound in combination with colistin ([7]; colistin 0.5 μg/mL, strain F): 0.8 µg/mL | MICA(A + B) (MIC of compound in combination with colistin) [7, 9]: 0.8 µg/mL | MICB(A + B) (MIC of colistin in combination with compound) [7, 9]: 0.5 µg/mL | Interpretation (of FICI) ([7]; compound + colistin): Indifferent (1.0 to 4.0 were indifferent) | FICI [7, 10]: 1.004
